Read-outs that look alike come from different tables or passages of the source.
Tests used:
Experiment in all cases: Kinase selectivity, P33-radiolabeled assay
Format in all cases: biochemical
Conditions in all cases: 10 μM ATP
IR = target: T1, IR (Homo sapiens, UniProt P06213)
T1 construct: purchased Reaction Biology Corp
Outline: (§1)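 Each enzyme was exposed to 10 μM compound, with duplicate measurements, in reactions containing 10 μM ATP. Numbers are remaining activity as a percent of the vehicle (DMSO) signal.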

CAMK1b = target: T2, CAMK1b (Homo sapiens, UniProt Q6P2M8)
T2 construct: purchased Reaction Biology Corp
Outline: as §1

COT1/MAP3K8 = target: T3, COT1/MAP3K8 (Homo sapiens, UniProt P41279)
T3 construct: purchased Reaction Biology Corp
T3 sequence (P41279 whole entry): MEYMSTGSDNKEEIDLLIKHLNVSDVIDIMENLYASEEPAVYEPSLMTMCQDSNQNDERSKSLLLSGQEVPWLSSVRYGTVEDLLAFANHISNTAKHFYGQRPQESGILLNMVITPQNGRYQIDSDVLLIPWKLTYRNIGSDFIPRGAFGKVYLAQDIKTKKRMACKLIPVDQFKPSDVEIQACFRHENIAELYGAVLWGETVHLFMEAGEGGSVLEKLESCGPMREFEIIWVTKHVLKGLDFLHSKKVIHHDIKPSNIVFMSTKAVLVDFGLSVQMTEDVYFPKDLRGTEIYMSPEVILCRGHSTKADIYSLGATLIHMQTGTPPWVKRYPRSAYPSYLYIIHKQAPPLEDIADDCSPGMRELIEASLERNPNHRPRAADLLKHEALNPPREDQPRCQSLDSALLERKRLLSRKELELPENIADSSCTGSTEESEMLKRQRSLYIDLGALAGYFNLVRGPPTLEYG
Outline: as §1

MINK/MINK1 = target: T4, MINK/MINK1 (Homo sapiens, UniProt Q8N4C8)
T4 construct: purchased Reaction Biology Corp
T4 sequence (Q8N4C8 whole entry): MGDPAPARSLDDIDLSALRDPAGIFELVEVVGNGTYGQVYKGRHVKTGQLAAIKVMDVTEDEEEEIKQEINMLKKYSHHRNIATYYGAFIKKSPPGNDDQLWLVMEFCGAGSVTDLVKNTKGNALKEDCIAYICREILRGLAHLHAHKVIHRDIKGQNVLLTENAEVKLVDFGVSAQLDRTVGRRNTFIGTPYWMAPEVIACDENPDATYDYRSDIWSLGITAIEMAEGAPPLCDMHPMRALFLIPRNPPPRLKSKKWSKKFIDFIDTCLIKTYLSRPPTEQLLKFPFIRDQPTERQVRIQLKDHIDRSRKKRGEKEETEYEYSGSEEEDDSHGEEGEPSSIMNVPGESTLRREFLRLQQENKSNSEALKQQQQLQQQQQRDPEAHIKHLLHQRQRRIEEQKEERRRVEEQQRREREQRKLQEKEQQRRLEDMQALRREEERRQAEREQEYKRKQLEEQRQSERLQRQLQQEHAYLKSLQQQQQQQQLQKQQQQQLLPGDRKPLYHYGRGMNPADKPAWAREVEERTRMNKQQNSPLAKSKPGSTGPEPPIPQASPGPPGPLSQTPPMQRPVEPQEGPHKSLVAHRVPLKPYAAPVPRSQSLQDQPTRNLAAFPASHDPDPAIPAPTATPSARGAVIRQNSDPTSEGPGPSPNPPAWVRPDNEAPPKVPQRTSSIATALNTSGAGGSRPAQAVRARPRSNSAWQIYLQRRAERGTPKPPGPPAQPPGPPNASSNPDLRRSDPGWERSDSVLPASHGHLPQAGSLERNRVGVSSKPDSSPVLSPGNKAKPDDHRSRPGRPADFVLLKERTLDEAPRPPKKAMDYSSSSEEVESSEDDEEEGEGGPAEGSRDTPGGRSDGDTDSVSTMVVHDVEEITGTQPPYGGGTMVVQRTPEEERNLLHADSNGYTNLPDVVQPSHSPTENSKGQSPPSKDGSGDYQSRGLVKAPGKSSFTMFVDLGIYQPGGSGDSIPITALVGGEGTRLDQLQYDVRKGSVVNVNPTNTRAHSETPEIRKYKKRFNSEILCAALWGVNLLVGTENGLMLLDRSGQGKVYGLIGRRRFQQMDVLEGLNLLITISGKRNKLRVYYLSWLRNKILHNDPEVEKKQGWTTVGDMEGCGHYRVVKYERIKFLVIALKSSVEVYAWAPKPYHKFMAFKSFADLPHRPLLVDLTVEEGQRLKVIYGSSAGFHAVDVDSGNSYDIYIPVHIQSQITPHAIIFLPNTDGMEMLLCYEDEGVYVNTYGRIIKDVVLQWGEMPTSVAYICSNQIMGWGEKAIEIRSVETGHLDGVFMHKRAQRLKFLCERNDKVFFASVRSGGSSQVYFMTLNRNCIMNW
Outline: as §1

MST3/STK24 = target: T5, MST3/STK24 (Homo sapiens, UniProt Q9Y6E0)
T5 construct: purchased Reaction Biology Corp
Outline: as §1

MARK2/PAR-1Ba = target: T6, MARK2/PAR-1Ba (Homo sapiens, UniProt Q7KZI7)
T6 construct: purchased Reaction Biology Corp
T6 sequence (Q7KZI7 whole entry): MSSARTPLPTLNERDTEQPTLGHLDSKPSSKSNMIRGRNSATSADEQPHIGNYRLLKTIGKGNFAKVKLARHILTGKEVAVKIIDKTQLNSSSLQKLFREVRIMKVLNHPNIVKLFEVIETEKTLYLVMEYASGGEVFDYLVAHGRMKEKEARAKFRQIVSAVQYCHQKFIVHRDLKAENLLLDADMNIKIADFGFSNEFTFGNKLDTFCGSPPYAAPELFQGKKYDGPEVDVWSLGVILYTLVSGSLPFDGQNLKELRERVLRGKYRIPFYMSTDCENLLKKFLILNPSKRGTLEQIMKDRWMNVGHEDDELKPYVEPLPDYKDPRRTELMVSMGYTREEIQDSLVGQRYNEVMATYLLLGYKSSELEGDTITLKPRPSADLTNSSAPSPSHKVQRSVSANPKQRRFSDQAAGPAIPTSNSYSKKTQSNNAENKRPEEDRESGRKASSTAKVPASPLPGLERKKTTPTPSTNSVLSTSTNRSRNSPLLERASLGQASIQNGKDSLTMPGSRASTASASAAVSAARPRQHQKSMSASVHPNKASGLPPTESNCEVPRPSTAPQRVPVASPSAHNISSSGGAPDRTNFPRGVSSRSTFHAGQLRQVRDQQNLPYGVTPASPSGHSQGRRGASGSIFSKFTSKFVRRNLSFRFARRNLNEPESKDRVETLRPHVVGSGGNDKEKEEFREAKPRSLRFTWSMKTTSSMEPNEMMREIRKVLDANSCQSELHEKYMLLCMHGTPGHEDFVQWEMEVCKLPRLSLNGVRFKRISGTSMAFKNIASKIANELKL
Outline: as §1

MAPKAPK5/PRAK = target: T7, MAPKAPK5/PRAK (Homo sapiens, UniProt Q8IW41)
T7 construct: purchased Reaction Biology Corp
T7 sequence (Q8IW41 1-473): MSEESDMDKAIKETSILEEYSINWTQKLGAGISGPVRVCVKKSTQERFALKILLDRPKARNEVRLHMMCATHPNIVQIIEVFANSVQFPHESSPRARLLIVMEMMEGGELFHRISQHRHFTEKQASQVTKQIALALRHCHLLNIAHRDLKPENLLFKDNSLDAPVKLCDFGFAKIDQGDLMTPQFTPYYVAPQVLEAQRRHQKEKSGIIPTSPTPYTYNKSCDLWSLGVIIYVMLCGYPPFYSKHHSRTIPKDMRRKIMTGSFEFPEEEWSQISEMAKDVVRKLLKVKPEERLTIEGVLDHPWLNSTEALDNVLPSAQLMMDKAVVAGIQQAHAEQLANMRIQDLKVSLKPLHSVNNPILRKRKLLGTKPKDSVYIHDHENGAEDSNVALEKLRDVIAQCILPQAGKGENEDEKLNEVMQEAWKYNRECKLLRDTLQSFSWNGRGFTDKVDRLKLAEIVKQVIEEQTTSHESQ
Outline: as §1

SGK1 = target: T8, SGK1 (Homo sapiens, UniProt O00141)
T8 construct: purchased Reaction Biology Corp
T8 sequence (O00141 1-431): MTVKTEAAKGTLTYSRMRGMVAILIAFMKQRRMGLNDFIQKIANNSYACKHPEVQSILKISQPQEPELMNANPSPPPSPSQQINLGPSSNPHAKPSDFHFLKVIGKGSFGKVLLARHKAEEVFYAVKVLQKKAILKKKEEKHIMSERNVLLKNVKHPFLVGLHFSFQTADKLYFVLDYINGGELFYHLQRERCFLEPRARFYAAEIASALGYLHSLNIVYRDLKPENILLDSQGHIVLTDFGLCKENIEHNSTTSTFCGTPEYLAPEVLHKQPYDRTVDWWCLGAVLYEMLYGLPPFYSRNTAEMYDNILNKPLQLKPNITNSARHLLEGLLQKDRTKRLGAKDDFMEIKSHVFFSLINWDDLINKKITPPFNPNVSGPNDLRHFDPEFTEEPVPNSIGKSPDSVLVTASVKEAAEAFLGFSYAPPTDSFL
Outline: as §1

JAK1 = target: T9, JAK1 (Homo sapiens, UniProt P23458)
T9 construct: purchased Reaction Biology Corp
Outline: as §1

RET = target: T10, RET (Homo sapiens, UniProt P07949)
T10 construct: purchased Reaction Biology Corp
T10 sequence (P07949 29-1114): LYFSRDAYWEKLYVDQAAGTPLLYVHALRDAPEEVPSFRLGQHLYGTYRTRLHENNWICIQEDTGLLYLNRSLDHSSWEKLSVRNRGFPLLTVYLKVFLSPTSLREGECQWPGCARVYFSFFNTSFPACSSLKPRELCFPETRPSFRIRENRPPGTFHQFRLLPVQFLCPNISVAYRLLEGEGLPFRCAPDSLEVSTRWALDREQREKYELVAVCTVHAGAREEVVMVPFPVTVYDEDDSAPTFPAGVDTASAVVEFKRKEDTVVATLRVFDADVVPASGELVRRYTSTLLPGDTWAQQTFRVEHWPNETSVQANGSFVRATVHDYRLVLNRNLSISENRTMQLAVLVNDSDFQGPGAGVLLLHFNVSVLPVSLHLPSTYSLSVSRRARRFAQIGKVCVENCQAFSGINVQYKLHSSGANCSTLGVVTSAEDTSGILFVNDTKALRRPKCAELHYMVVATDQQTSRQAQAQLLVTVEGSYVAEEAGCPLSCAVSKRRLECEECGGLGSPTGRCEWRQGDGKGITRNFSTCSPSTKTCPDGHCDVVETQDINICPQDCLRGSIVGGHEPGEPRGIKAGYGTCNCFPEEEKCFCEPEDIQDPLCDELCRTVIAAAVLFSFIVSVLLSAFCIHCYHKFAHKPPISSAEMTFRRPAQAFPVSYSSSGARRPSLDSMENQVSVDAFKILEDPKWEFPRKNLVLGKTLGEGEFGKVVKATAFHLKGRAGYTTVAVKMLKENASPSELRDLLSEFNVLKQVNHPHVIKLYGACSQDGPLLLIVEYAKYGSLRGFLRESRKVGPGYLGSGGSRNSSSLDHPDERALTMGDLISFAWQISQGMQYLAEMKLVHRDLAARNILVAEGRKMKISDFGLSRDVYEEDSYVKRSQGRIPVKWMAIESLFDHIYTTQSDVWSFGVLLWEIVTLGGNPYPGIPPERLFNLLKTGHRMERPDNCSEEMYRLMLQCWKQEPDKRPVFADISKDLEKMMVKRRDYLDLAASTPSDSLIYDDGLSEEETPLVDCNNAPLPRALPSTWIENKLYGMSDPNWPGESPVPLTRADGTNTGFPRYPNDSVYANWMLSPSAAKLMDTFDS
Outline: as §1

PKCnu/PRKD3 = target: T11, PKCnu/PRKD3 (Homo sapiens, UniProt O94806)
T11 construct: purchased Reaction Biology Corp
T11 sequence (O94806 1-890): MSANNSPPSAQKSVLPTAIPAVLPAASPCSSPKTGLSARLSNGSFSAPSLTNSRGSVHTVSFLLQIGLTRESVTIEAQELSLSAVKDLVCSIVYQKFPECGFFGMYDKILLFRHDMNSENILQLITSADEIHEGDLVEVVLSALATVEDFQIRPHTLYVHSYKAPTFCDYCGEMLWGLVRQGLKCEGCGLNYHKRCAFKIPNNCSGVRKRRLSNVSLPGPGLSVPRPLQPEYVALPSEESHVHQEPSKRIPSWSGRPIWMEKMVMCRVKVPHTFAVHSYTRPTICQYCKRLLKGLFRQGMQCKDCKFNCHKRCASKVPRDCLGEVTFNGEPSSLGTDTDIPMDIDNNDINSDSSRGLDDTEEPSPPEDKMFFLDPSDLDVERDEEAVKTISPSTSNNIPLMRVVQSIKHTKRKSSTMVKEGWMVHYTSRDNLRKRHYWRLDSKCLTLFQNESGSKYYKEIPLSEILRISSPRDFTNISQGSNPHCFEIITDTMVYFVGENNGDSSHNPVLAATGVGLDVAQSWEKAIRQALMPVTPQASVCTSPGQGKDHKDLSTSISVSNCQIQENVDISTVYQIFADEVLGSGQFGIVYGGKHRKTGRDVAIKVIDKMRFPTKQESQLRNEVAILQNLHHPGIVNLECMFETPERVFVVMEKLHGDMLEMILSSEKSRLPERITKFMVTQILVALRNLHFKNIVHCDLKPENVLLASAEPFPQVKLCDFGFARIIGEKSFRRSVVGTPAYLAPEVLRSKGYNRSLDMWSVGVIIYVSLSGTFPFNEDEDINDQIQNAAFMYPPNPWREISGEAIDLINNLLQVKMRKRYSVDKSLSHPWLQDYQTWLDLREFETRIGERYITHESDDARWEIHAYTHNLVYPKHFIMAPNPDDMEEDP
Outline: as §1

EGFR = target: T12, EGFR (Homo sapiens, UniProt P00533)
T12 construct: purchased Reaction Biology Corp
Outline: as §1

[1] = read-out: % Enzyme Activity (relative to DMSO controls) AVG
[2] = read-out: % Enzyme Activity (relative to DMSO controls) Data 1
[3] = read-out: % Enzyme Activity (relative to DMSO controls) Data 2

T1 sequence (P06213 28-1382): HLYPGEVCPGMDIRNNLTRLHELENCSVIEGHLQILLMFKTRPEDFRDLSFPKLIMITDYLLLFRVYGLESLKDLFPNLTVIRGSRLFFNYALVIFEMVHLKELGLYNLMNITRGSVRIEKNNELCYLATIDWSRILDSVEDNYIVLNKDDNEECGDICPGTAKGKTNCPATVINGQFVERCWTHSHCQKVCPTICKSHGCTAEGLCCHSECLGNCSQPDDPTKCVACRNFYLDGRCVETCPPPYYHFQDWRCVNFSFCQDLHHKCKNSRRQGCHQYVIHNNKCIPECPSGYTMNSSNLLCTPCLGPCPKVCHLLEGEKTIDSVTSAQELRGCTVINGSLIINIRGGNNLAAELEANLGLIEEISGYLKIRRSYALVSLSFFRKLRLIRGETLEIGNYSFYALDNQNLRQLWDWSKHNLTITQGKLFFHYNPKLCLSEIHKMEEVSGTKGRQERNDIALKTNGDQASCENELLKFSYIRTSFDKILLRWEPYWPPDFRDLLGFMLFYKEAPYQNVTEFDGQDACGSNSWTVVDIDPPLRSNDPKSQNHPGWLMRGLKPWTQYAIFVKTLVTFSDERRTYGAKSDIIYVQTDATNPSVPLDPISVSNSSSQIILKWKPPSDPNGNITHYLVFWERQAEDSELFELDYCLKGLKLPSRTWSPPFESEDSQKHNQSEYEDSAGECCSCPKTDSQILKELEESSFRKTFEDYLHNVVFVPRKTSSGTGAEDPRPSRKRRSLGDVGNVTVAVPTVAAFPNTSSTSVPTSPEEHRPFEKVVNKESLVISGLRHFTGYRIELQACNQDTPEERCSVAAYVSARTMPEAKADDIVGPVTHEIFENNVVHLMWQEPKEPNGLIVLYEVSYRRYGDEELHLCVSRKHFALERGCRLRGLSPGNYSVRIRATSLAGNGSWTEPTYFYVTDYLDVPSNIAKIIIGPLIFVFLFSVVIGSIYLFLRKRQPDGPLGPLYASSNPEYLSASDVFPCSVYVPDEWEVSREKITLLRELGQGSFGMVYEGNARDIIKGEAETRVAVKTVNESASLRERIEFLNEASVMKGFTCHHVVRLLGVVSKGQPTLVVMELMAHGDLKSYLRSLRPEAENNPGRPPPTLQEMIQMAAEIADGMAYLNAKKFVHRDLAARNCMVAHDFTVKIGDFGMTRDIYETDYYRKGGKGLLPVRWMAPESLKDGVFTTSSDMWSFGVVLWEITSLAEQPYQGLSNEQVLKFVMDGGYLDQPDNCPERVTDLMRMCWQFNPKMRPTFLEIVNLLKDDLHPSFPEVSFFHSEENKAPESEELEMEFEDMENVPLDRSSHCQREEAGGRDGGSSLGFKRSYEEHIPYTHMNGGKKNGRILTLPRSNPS

Structure (SMILES): CC(C)(C)C(=O)N1N=CC[C@H]1c1ccccc1 [GSK′963]
- remaining activity at 10 µM (IR; [1]): 101%
- remaining activity at 10 µM (IR; [2]): 104%
- remaining activity at 10 µM (IR; [3]): 97.1%
- remaining activity at 10 µM (CAMK1b; [1]): 96.4%
- remaining activity at 10 µM (CAMK1b; [2]): 97.1%
- remaining activity at 10 µM (CAMK1b; [3]): 95.8%
- remaining activity at 10 µM (COT1/MAP3K8; [1]): 87.1%
- remaining activity at 10 µM (COT1/MAP3K8; [2]): 86.6%
- remaining activity at 10 µM (COT1/MAP3K8; [3]): 87.5%
- remaining activity at 10 µM (MINK/MINK1; [1]): 90.2%
- remaining activity at 10 µM (MINK/MINK1; [2]): 89.8%
- remaining activity at 10 µM (MINK/MINK1; [3]): 90.6%
- remaining activity at 10 µM (MST3/STK24; [1]): 87.4%
- remaining activity at 10 µM (MST3/STK24; [2]): 87.3%
- remaining activity at 10 µM (MST3/STK24; [3]): 87.5%
- remaining activity at 10 µM (MARK2/PAR-1Ba; [1]): 105%
- remaining activity at 10 µM (MARK2/PAR-1Ba; [2]): 106%
- remaining activity at 10 µM (MARK2/PAR-1Ba; [3]): 104%
- remaining activity at 10 µM (MAPKAPK5/PRAK; [1]): 116%
- remaining activity at 10 µM (MAPKAPK5/PRAK; [2]): 115%
- remaining activity at 10 µM (MAPKAPK5/PRAK; [3]): 117%
- remaining activity at 10 µM (SGK1; [1]): 99.7%
- remaining activity at 10 µM (SGK1; [2]): 99%
- remaining activity at 10 µM (SGK1; [3]): 100%
- remaining activity at 10 µM (JAK1; [1]): 98.8%
- remaining activity at 10 µM (JAK1; [2]): 97.9%
- remaining activity at 10 µM (JAK1; [3]): 99.8%
- remaining activity at 10 µM (RET; [1]): 108%
- remaining activity at 10 µM (RET; [2]): 107%
- remaining activity at 10 µM (RET; [3]): 108%
- remaining activity at 10 µM (PKCnu/PRKD3; [1]): 101%
- remaining activity at 10 µM (PKCnu/PRKD3; [2]): 103%
- remaining activity at 10 µM (PKCnu/PRKD3; [3]): 100%
- remaining activity at 10 µM (EGFR; [1]): 106%
- remaining activity at 10 µM (EGFR; [2]): 105%
- remaining activity at 10 µM (EGFR; [3]): 108%

Reference: PMC4979471 (Cell Death Discovery, 2015)
